Read-outs that look alike come from different tables or passages of the source.

This test addresses T1, human Keap1 kelch domain (amino acids Ala321-Thr609) (Homo sapiens, UniProt Q14145).
T1 construct: human Keap1 kelch domain (amino acids Ala321-Thr609)
Nature of the test: Keap1-Nrf2 peptide binding assay (fluorescence polarisation). As to conditions: binding of Keap1 kelch domain (20 nM) to fluorescently labeled Nrf2 peptide (50 nM).

T1 sequence (Q14145 321-609): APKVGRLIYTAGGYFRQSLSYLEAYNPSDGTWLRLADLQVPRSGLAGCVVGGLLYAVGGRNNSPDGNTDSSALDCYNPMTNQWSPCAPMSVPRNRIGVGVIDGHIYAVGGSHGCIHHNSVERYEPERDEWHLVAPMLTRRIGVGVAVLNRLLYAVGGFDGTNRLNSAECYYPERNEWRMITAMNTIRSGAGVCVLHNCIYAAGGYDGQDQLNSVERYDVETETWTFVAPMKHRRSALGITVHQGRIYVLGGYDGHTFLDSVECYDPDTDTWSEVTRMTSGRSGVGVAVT

For `Cc1nn(C)c(Cl)c1S(=O)(=O)Nc1ccc(-c2cc(C(=O)O)ccc2F)c2ccccc12` [Example 56, 3-[4-[(5-chloro-1,3-dimethyl-pyrazol-4-yl)sulfonylamino]-1-naphthyl]-4-fluorobenzoic acid], the concentration for half-maximal inhibition (IC50) (read-out: IC50) amounted to 0.3 µM.

Take `CC(=O)Nc1ccc(C)c(S(=O)(=O)Nc2ccc(-c3cccc(C(=O)O)c3)c3ccccc23)c1` [Example 31, 3-[4-[(5-acetamido-2-methylphenyl)sulfonylamino]-1-naphthyl]benzoic acid]: for the setting “read-out: IC50”, the IC50 amounted to 3.2 µM.

For the compound `Cc1c(Cl)cccc1S(=O)(=O)Nc1ccc(-c2cccc(C(=O)O)c2)c2ccccc12` [Example 13, 3-[4-[(3-chloro-2-methylphenyl)sulfonylamino]-1-naphthyl]benzoic acid], the IC50 came to 1.1 µM.

Consider `O=C(O)c1cccc(-c2ccc(NS(=O)(=O)c3ccc(-n4cccn4)cc3)c3ccccc23)c1` [Example 20, 3-[4-[(4-pyrazol-1-ylphenyl)sulfonylamino]-1-naphthyl]benzoic acid], for which, under “read-out: IC50”, the IC50 came out at 4 µM.

For `Cc1ccc(C#N)c(S(=O)(=O)Nc2ccc(-c3cccc(C(=O)O)c3)c3ccccc23)c1` [Example 53, 3-[4-[(2-cyano-5-methylphenyl)sulfonylamino]-1-naphthyl]benzoic acid], the concentration for half-maximal inhibition (IC50) came to 6.7 µM.

Take `Cc1c(S(=O)(=O)Nc2ccc(-c3cccc(C(=O)O)c3)c3ccccc23)cnn1-c1ccccc1` [Example 23, 3-[4-[(5-methyl-1-phenyl-pyrazol-4-yl)sulfonylamino]-1-naphthyl]benzoic acid]: under “read-out: IC50”, the IC50 was 4.5 µM.

In turn, `CN1CCOc2cc(S(=O)(=O)Nc3ccc(-c4cccc(C(=O)O)c4)c4ccccc34)ccc21` [Example 43, 3-[4-[(4-methyl-2,3-dihydro-1,4-benzoxazin-7-yl)sulfonylamino]-1-naphthyl]benzoic acid] showed an IC50 of 1.6 µM.

In the case of `O=C(O)c1ccc(F)c(-c2ccc(NS(=O)(=O)c3cc(Cl)sc3Cl)c3ccccc23)c1` [Example 85, 3-[4-[(2,5-dichloro-3-thienyl)sulfonylamino]-1-naphthyl]-4-fluoro-benzoic acid], the IC50 (read-out: IC50) was 0.9 µM.

Take `Cc1c(S(=O)(=O)Nc2ccc(-c3cc(C(=O)O)ccc3F)c3ncccc23)sc2cccc(F)c12` [Example 94, 4-fluoro-3-[5-[(4-fluoro-3-methyl-benzothiophen-2-yl)sulfonylamino]-8-quinolyl]benzoic acid]: the IC50 (read-out: IC50) worked out at 3 µM.

Consider `CC(=O)N1c2ccc(S(=O)(=O)Nc3ccc(-c4cccc(C(=O)O)c4)c4ccccc34)cc2CC1C` (stereo not shown) [Example 27, 3-[4-[(1-acetyl-2-methyl-indolin-5-yl)sulfonylamino]-1-naphthyl]benzoic acid], for which the IC50 (read-out: IC50) is 3.6 µM.

Consider `COc1cc(C)ccc1S(=O)(=O)Nc1ccc(-c2cc(C(=O)O)ccc2F)c2ccccc12` [Example 89, 4-fluoro-3-[4-[(2-methoxy-4-methylphenyl)sulfonylamino]-1-naphthyl]benzoic acid], for which, for the setting “read-out: IC50”, the 50% inhibitory concentration (IC50) turned out to be 2.5 µM.

As to `Cc1cc(C)c(C)c(S(=O)(=O)Nc2ccc(-c3ccc(F)c(C(=O)O)c3)c3ccccc23)c1C` [Example 6, 2-fluoro-5-[4-[(2,3,5,6-tetramethylphenyl)sulfonylamino]-1-naphthyl]benzoic acid], under “read-out: IC50”, the IC50 stood at 1.7 µM.

Turning to `O=C(O)c1cccc(-c2ccc(NS(=O)(=O)c3c(Cl)nc4sccn34)c3ccccc23)c1` [Example 60, 3-[4-[(6-chloroimidazo[2,1-b]thiazol-5-yl)sulfonylamino]-1-naphthyl]benzoic acid], the IC50 (read-out: IC50) was 0.9 µM.
